Assay results published in US20070077642A1, “Steroid receptor modulation of gene expression” (priority 2002, published 2007).
Read-outs that look alike come from different tables or passages of the source.

Columns and labels:
[1] = system: A. nidulans; assay: Growth test on plates at different ligand concentrations; type: cell-based, Aspergillus nidulans
Description: Induction of estrogen receptor expression via the addition of […], 100 nM, and 1 μM of DES inducer to media plates harboring the Xgal substrate for LacZ in the transformed strain: A. nidulans argB2, riboA1, pyrG 89, pyroA4. FIG. 6. […] Activation of the reporter construct at 1 nM DES was shown in the transformed fungi.

[2] = system: alcA promoter of A. nidulans; conditions: pRM alcA, induction with ethanol
Description: To test the different inducer concentrations the strains were harvested by filtration and aliquots were transferred to fresh media containing the different inducer concentrations and additionally grown for 8 hours. At the end mycelium was harvested by filtration and frozen in liquid nitrogen. For time curve experiments the strains were harvested and additionally grown for 24 hours and after 2, 4, 6, 8 and 24 hours samples were taken and frozen in liquid nitrogen. […] An equal amount of fungal cell mass has been transferred to fresh medium and aliquots have been subjected to induction by the agonists. After sampling at desired time points the wet cell pellet has been processed as described.
NaPO4 buffer and glasbeads (0.75-1.0 mm) were added to the frozen mycelia and cells were destroyed by the use of the Hybaid RiboLyser. Cell debris was separated by centrifugation and the supernatant was used for enzyme assays Protein concentration was determined using the BCA assay of Pierce and the specific β-galactosidase activity was determined by the use of the protocol of Invitrogen.
β-gal activity in each pERE constructs were assayed after induction with 1 nM DES. The alcA expression was also assayed for comparison.

| SMILES | growth of strains transformed with reporter constructs ([1]; strains transformed with reporter constructs, 100 nM DES) | growth of strains transformed with the hER ([1]; strains transformed with the hER, 1 nM DES) | effect on growth of a wild type strain ([1]; wild type strain, DES concentrations up to 20 μM) | Inducibility ([2]; 24 h level over time 0 level) | β-gal activity ([2]; time 2 hours) [units per mg protein] | β-gal activity ([2]; time 4 hours) [units per mg protein] | β-gal activity ([2]; time 6 hours) [units per mg protein] | β-gal activity ([2]; time 8 hours) [units per mg protein] | β-gal activity ([2]; time 24 hours) [units per mg protein] |
| --- | --- | --- | --- | --- | --- | --- | --- | --- | --- |
| CC/C(=C(/CC)c1ccc(O)cc1)c1ccc(O)cc1 [DES, diethylstilbestrol] | strong growth inhibition | Growth inhibition | do not affect the growth |  |  |  |  |  |  |
| CCO [ethanol] |  |  |  | 16.23 | 506.66 | 714.43 | 1327.44 | 1431.02 | 6082.59 |
